This assay has as its system recombinant NL4-3 virus (Renilla luciferase) in MT-2 cells. Put plainly: HIV cell culture assay (antiviral activity, luciferase readout in infected MT-2 cells). It counts as cell-based. The settings on record: Renilla. In short, it runs like this:
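Nef-deleted NL4-3 carrying Renilla luciferase, produced by 293T transfection, used to infect MT-2 cells for 4–5 days with serial compound dilutions. Live-cell luciferase signal read as infection marker; EC50 from exponential median-effect equation.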

Where [1] appears, read: NL43, read-out: Activity, antiviral activity class, recombinant NL4-3 Renilla luciferase virus in MT-2 cells.
Where [2] appears, read: NL43, recombinant NL4-3 Renilla luciferase virus in MT-2 cells.

Read-outs that look alike come from different tables or passages of the source.

Consider `CN(C(=O)[C@H](Cc1ccccc1)NC(=O)NS(=O)(=O)CCc1ccccc1)c1ccc2c(c1)OCO2` [Example 24, (S)—N-(benzo[d][1,3]dioxol-5-yl)-N-methyl-2-(3-(phenethylsulfonyl)ureido)-3-phenylpropanamide], for which, under setting [1], the EC50 lay in the range of 100 to 1000 nM.

Turning to `Cc1ccc(C)c(S(=O)(=O)NC(=O)N[C@@H](Cc2ccccc2)C(=O)N(C)c2ccc3c(c2)OCO3)c1` [Example 13, (S)—N-(benzo[d][1,3]dioxol-5-yl)-2-(3-((2,5-dimethylphenyl)sulfonyl)ureido)-N-methyl-3-phenylpropanamide], the EC50 is, setting by setting: under setting [1], < 100 nM; under setting [2], 50 nM. Take `CCc1cccc(C[C@H](NC(=O)NS(=O)(=O)c2ccccc2CC)C(=O)N(C)c2ccc(OC)cc2)c1` [Example 215, (S)-3-(3-ethylphenyl)-2-(3-((2-ethylphenyl)sulfonyl)ureido)-N-(4-methoxyphenyl)-N-methylpropanamide]: the EC50 under setting [1] lay within 100 to 1000 nM. In the case of `Cc1c(Cl)cccc1S(=O)(=O)NC(=O)N[C@@H](Cc1ccccc1)C(=O)N(C)c1ccc2c(c1)OCO2` [Example 28, (S)—N-(benzo[d][1,3]dioxol-5-yl)-2-(3-((3-chloro-2-methylphenyl)sulfonyl)ureido)-N-methyl-3-phenylpropanamide], the EC50 under setting [1] is < 100 nM. `C=Cc1ccccc1S(=O)(=O)NC(=O)N[C@@H](Cc1ccccc1)C(=O)N(C)c1ccc2c(c1)OCO2` [Example 136, (S)—N-(benzo[d][1,3]dioxol-5-yl)-N-methyl-3-phenyl-2-(3-((2-vinylphenyl)sulfonyl)ureido)propanamide]: the EC50 under setting [1] is < 100 nM. With `Cc1ccccc1S(=O)(=O)NC(=O)N[C@@H](Cc1ccc(C#N)cc1)C(=O)N(C)c1ccc2c(c1)OCO2` [Example 63, (S)—N-(benzo[d][1,3]dioxol-5-yl)-3-(4-cyanophenyl)-N-methyl-2-(3-(o-tolylsulfonyl)ureido)propanamide], the EC50 under setting [1] was in the range of 1000 to 10000 nM. Still for that read-out and setting: to `CN(C(=O)[C@H](Cc1ccccc1)NC(=O)NS(=O)(=O)c1ccccc1F)c1ccc2c(c1)OC(F)(F)O2` [Example 34, (S)—N-(2,2-difluorobenzo[d][1,3]dioxol-5-yl)-2-(3-((2-fluorophenyl)sulfonyl)ureido)-N-methyl-3-phenylpropanamide] belongs 100 to 1000 nM; to `CN(C(=O)[C@H](Cc1ccccc1)NC(=O)NS(=O)(=O)c1ccccc1-c1cccc(O)c1)c1ccc2c(c1)OCO2` [Example 125, (S)—N-(benzo[d][1,3]dioxol-5-yl)-2-(3-((3′-hydroxy-[1,1′-biphenyl]-2-yl)sulfonyl)ureido)-N-methyl-3-phenylpropanamide], 1000 to 10000 nM. Consider `CCN(C(=O)[C@H](Cc1ccccc1)NC(=O)NS(=O)(=O)c1cccc(-c2cc3c(OC)cccc3[nH]2)c1)c1ccc(OC)cc1` [Example 154, (S)—N-ethyl-2-(3-((3-(4-methoxy-1H-indol-2-yl)phenyl)sulfonyl)ureido)-N-(4-methoxyphenyl)-3-phenylpropanamide], for which the EC50 under setting [1] was in the range of 100 to 1000 nM and the EC50 under setting [2] came to 670 nM. With `CCN(C(=O)[C@H](Cc1ccccc1)NC(=O)NS(=O)(=O)c1cccc(-c2ccsc2)c1)c1ccc(OC)cc1` [Example 151, (S)—N-ethyl-N-(4-methoxyphenyl)-3-phenyl-2-(3-((3-(thiophen-3-yl)phenyl)sulfonyl)ureido)propanamide], the EC50 is 100 to 1000 nM under setting [1] and 110 nM under setting [2].

Consider `COc1ccc(N(C)C(=O)[C@H](Cc2cccs2)NC(=O)NS(=O)(=O)c2ccccc2C)cc1` [Example 198, (S)—N-(4-methoxyphenyl)-N-methyl-3-(thiophen-2-yl)-2-(3-(o-tolylsulfonyl)ureido)propanamide], for which the EC50 under setting [1] lay within 100 to 1000 nM and the EC50 under setting [2] was determined as 270 nM. Take `CN(C(=O)[C@H](Cc1ccccc1)NC(=O)NS(=O)(=O)C1CC1)c1ccc2c(c1)OCO2` [Example 42, (S)—N-(benzo[d][1,3]dioxol-5-yl)-2-(3-(cyclopropylsulfonyl)ureido)-N-methyl-3-phenylpropanamide]: the EC50 reads like this: under setting [1], 100 to 1000 nM; under setting [2], 480 nM.

Values taken from patent US10035760B2, “Inhibitors of human immunodeficiency virus replication” (priority 2013, dated 2018).
